Laboratory results as given in patent publication US10870638B2, “Pyridazinone compound or its salt, and herbicide containing it” (ISHIHARA SANGYO KAISHA, LTD., priority 2016, dated 2020).

What was measured:
Type in all cases: in vivo
Conditions in all cases: active ingredient amount 31 g/ha, 14th day after application
[1] = test system: barnyardgrass (Echinochloa crus-qalli L.); assay: Test Example 1: foliar treatment, growth inhibition rate on 14th day
Summary of the method: (§1)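 Using a small sprayer, formulated compound in water (0.1 vol % surfactant, 1,000 L/ha) was applied to seedlings grown from seed in upland soil. Fourteen days on, growth state was observed and expressed as percent inhibition from 0 to 100.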

corn (Zea mays L.) [2] = assay: as above
Summary of the method: as §1

[3] = test system: crabgrass (Digitaria sanquinalis L.); assay: as above
Summary of the method: as §1

[4] = test system: green foxtail (Setaria viridis L.); assay: as above
Summary of the method: (§2)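 Inhibition was rated visually 14 days after treatment on a 0–100% scale, where 100 is complete kill. Compounds, formulated as wettable powders or emulsifiable concentrates at set active-ingredient amounts, were diluted to 1,000 L/ha with 0.1 vol% spreader. The dilutions were sprayed post-emergence onto soybean (primary leaf), rice (0.2–2.7 leaf), wild oat (0.4–1.2) and green foxtail (0.5–3.2).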

[5] = test system: italian ryegrass (Lolium multiflorum Lam.); assay: as above
Summary of the method: as §1

[6] = test system: redroot pigweed (Amaranthus retroflexus L.); assay: as above
Summary of the method: as §1

rice (Oryza sativa L.) [7] = assay: as above
Summary of the method: as §2

[8] = test system: soybean (Glycine max Merr.); assay: as above
Summary of the method: as §2

[9] = test system: wheat (Triticum aestivum L.); assay: as above
Summary of the method: as §1

[10] = test system: wild oat (Avena fatua L.); assay: as above
Summary of the method: as §2

[11] = test system: barnyardgrass (Echinochloa crus-qalli L.); assay: Test Example 2: soil application on the day after sowing, growth inhibition rate on 14th day
Text: (§3) Upland field soil was put into a 1/300,000 hectare pot, and seeds of various plants (barnyardgrass (Echinochloa crus-qalli L.), crabgrass (Digitaris sanquinalis L.), green foxtail (Setaria viridis L.), redroot pigweed (Amaranthus retroflexus L.), prickly sida (Sida spinosa L.), velvetleaf (Abutilon theophrasti MEDIC.), rice (Oryza sativa L.), corn (Zea mays L.), wheat (Triticum aestivum L.), soybean (Glycine max Merr.)) were sown. On the day after sowing, wettable powders or emulsifiable concentrates of the compounds of the present invention prepared in accordance with a conventional preparation method, were weighed so as to achieve the prescribed active ingredient amounts, and diluted with water in an amount corresponding to 1,000 liters per 1 hectare, followed by soil application by a small sprayer.
(§4) On the 14th day after the application, the state of growth of the respective plants was visually observed, and the herbicidal effect was evaluated by a growth inhibition rate (%) of 0 (equivalent to the non-treated area) to 100 (complete kill).

corn (Zea mays L.) [12] = assay: as above
Text: as §3, §4

[13] = test system: crabgrass (Digitaris sanquinalis L.); assay: as above
Text: as §3, §4

[14] = test system: green foxtail (Setaria viridis L.); assay: as above
Text: as §3, §4

[15] = test system: prickly sida (Sida spinosa L.); assay: as above
Text: as §3, §4

rice (Oryza sativa L.) [16] = assay: as above
Text: as §3, §4

[17] = test system: soybean (Glycine max Merr.); assay: as above
Text: as §3, §4

[18] = test system: velvetleaf (Abutilon theophrasti MEDIC.); assay: as above
Text: as §3, §4

[19] = test system: wheat (Triticum aestivum L.); assay: as above
Text: as §3, §4

[20] = visual, 0 = non-treated, 100 = complete kill

Compound	Growth inhibition rate (%) Barnyardgrass [1] [%]	Growth inhibition rate (%) Corn (corn (Zea mays L.) [2]) [%]	Growth inhibition rate (%) Crabgrass [3] [%]	Growth inhibition rate (%) Green foxtail [4] [%]	Growth inhibition rate (%) Italian ryegrass [5] [%]	Growth inhibition rate (%) Redroot pigweed [6] [%]	Growth inhibition rate (%) Rice (rice (Oryza sativa L.) [7]) [%]	Growth inhibition rate (%) Soybean [8] [%]	Growth inhibition rate (%) Wheat [9] [%]	Growth inhibition rate (%) Wild oat [10] [%]	Growth inhibition rate (%) Barnyardgrass [1, 20] [%]	Growth inhibition rate (%) Corn (corn (Zea mays L.) [2]; [20]) [%]	Growth inhibition rate (%) Crabgrass [3, 20] [%]	Growth inhibition rate (%) Green foxtail [4, 20] [%]	Growth inhibition rate (%) Italian ryegrass [5, 20] [%]	Growth inhibition rate (%) Redroot pigweed [6, 20] [%]	Growth inhibition rate (%) Rice (rice (Oryza sativa L.) [7]; [20]) [%]	Growth inhibition rate (%) Soybean [8, 20] [%]	Growth inhibition rate (%) Wheat [9, 20] [%]	Growth inhibition rate (%) Wild oat [10, 20] [%]	other results
Cc1ccc(Sc2ncc(C(F)(F)F)cc2Cl)cc1-c1c(O)c(C)nn(C)c1=O [1-2, 4-(5-((3-chloro-5-(trifluoromethyl)pyridin-2-yl)thio)-2-methylphenyl)-5-hydroxy-2,6-dimethylpyridazin-3(2H)-one]	100	95	99	99	99	0	10	0	20	95	–	–	–	–	–	–	–	–	–	–	inhibition at 31 g/ha ([11]; Echinochloa): 98%; inhibition at 31 g/ha (corn (Zea mays L.) [12]; Zea mays): 20%; inhibition at 31 g/ha ([13]; Digitaria sanguinalis): 98%; inhibition at 31 g/ha ([14]; Setaria viridis): 99%; inhibition at 31 g/ha ([15]; Sida spinosa): 30%; inhibition at 31 g/ha (rice (Oryza sativa L.) [16]; Oryza sativa): 20%; inhibition at 31 g/ha ([17]; Glycine max): 0%; inhibition at 31 g/ha ([18]; Abutilon theophrasti): 0%; inhibition at 31 g/ha ([19]; Triticum aestivum): 10%
CCc1ccc(Oc2nc3cc(Cl)ccc3o2)cc1-c1c(O)c(C)nn(C)c1=O [Compound 2-162]	100	90	100	99	100	10	100	0	99	100	–	–	–	–	–	–	–	–	–	–	Growth inhibition rate (%) Barnyardgrass [11]: 90%; Growth inhibition rate (%) Corn (corn (Zea mays L.) [12]): 0%; Growth inhibition rate (%) Crabgrass [13]: 20%; Growth inhibition rate (%) Green foxtail [14]: 20%; Growth inhibition rate (%) Rice (rice (Oryza sativa L.) [16]): 0%; Growth inhibition rate (%) Soybean [17]: 0%; Growth inhibition rate (%) Velvetleaf [18]: 0%; Growth inhibition rate (%) Wheat [19]: 20%
CCn1ncc(O)c(-c2cc(Oc3nc4ccc(Cl)cc4o3)ccc2C)c1=O [Compound 2-167]	100	90	99	100	80	0	60	30	25	45	–	–	–	–	–	–	–	–	–	–	Growth inhibition rate (%) Barnyardgrass [11]: 40%; Growth inhibition rate (%) Corn (corn (Zea mays L.) [12]): 0%; Growth inhibition rate (%) Crabgrass [13]: 99%; Growth inhibition rate (%) Green foxtail [14]: 100%; Growth inhibition rate (%) Prickly sida [15]: 0%; Growth inhibition rate (%) Rice (rice (Oryza sativa L.) [16]): 0%; Growth inhibition rate (%) Soybean [17]: 0%; Growth inhibition rate (%) Velvetleaf [18]: 0%; Growth inhibition rate (%) Wheat [19]: 0%
COCCOCOc1c(C)nn(C)c(=O)c1-c1cc(Oc2cnc3cc(Cl)ccc3n2)ccc1C [Compound 3-75]	–	–	–	–	–	–	–	–	–	–	99	10	95	99	98	0	0	0	95	98	–
Cc1ccc(Oc2cnc3cc(Cl)ccc3n2)cc1-c1c(OC(C)OC(=O)OC2CCCCC2)c(C)nn(C)c1=O (centres unmarked) [Compound 3-76]	–	–	–	–	–	–	–	–	–	–	93	0	30	93	10	0	0	0	0	0	–
C#CCOc1c(C)nn(C)c(=O)c1-c1cc(Oc2cnc3cc(Cl)ccc3n2)ccc1C [Compound 3-77]	–	–	–	–	–	–	–	–	–	–	100	30	90	100	85	0	0	0	25	60	–
Cc1ccc(Oc2cnc3cc(Cl)ccc3n2)cc1-c1c(OCC#N)c(C)nn(C)c1=O [Compound 3-78]	–	–	–	–	–	–	–	–	–	–	99	0	93	98	10	0	0	0	0	40	–
Cc1ccc(Oc2cnc3cc(Cl)ccc3n2)cc1-c1c(OC(=O)CC2CCCCC2)c(C)nn(C)c1=O [Compound 3-80]	–	–	–	–	–	–	–	–	–	–	100	25	95	99	93	0	0	25	90	99	–
Cc1ccc(Oc2cnc3cc(Cl)ccc3n2)cc1-c1c(OCOCCCl)c(C)nn(C)c1=O [Compound 3-81]	–	–	–	–	–	–	–	–	–	–	99	0	93	99	95	0	0	0	25	95	–
